How the values were obtained:
HBV [1] = assay: Anti-HBV activity in HepG2.2.15 stable transfected cell line (HBV DNA from secreted virions, realtime PCR); format: cell-based, Hepatitis B virus; conditions: HepG2.2.15 cells, 6 days of treatment, HBV DNA from secreted virions by realtime PCR
HBV [2] = assay: Anti-HBV activity in HepG2.117 inducible HBV producing cell line (intracellular HBV DNA, realtime PCR); format: cell-based, Hepatitis B virus; conditions: HepG2.117 cells (Tet-off), 3 days of treatment, intracellular HBV DNA by realtime PCR
[3] = Cytotoxicity in HepG2 cells (Resazurin assay); format: cell-based; conditions: human, incubated 4 days, viability by Resazurin assay
[4] = Hepatitis B virus, HepG2.2.15, 144 h
[5] = Hepatitis B virus, HepG2.117, 72 h

SMILES | EC50 (HBV [1]) [nM] | EC50 (HBV [2]) [nM] | CC50 at 4 days [3] [nM] | EC50 (HBV [1]; [4]) [nM] | EC50 (HBV [2]; [5]) [nM]
CC(C)NC(=O)C(=O)N1CCC(C(=O)Nc2cc(F)c(F)c(Cl)c2)[C@@H]1C (single isomer, unassigned) [Compound 29a] | 10 | 11 | > 25000 | – | –
Cc1cc(NC(=O)[C@H]2CCN(C(=O)C(=O)N[C@H](C)CO)C2)ccc1F [Compound 6, (S)-N-(4-fluoro-3-methylphenyl)-1-(2-(((R)-1-hydroxypropan-2-yl)amino)-2-oxoacetyl)pyrrolidine-3-carboxamide] | – | – | > 25000 | 301 | 257
CC(C)NC(=O)C(=O)N1CC[C@H](C(=O)Nc2ccc(F)c(C(F)(F)F)c2)C1 [Compound 23, (3S)-N-[4-fluoro-3-(trifluoromethyl)phenyl]-1-[2-(isopropylamino)-2-oxo-acetyl]pyrrolidine-3-carboxamide] | – | – | > 25000 | 380 | 575
CC[C@@H](C)NC(=O)C(=O)N1CC[C@H](C(=O)Nc2ccc(F)c(C(F)(F)F)c2)C1 [Compound 24, (3S)-N-[4-fluoro-3-(trifluoromethyl)phenyl]-1-[2-[[(1R)-1-methylpropyl]-amino]-2-oxo-acetyl]pyrrolidine-3-carboxamide] | – | – | > 25000 | 134 | 384
C[C@@H](NC(=O)C(=O)N1CC[C@H](C(=O)Nc2cc(F)c(F)c(Br)c2)C1)C(F)(F)F [Compound 1, (S)-N-(3-bromo-4,5-difluorophenyl)-1-(2-oxo-2-(((R)-1,1,1-trifluoropropan-2-yl)amino)acetyl)pyrrolidine-3-carboxamide] | – | – | > 25000 | 20 | 18
CC(C)NC(=O)C(=O)N1CCC(C(=O)Nc2cc(F)c(F)c(Cl)c2)[C@@H]1C (stereo partly drawn) [Compound 29, (2S)-N-(3-chloro-4,5-difluoro-phenyl)-1-[2-(isopropylamino)-2-oxo-acetyl]-2-methyl-pyrrolidine-3-carboxamide] | – | – | > 25000 | 18 | 48
C[C@@H](NC(=O)C(=O)N1CC[C@H](C(=O)Nc2ccc(F)c(Cl)c2)C1)C(F)(F)F [Compound 15, (S)-N-(3-chloro-4-fluorophenyl)-1-(2-oxo-2-(((R)-1,1,1-trifluoropropan-2-yl)amino)acetyl)pyrrolidine-3-carboxamide] | – | – | > 25000 | 25 | 47
CC(C)(C)NC(=O)C(=O)N1CC[C@H](C(=O)Nc2cc(F)c(F)c(Br)c2)C1 [Compound 3, (S)-N-(3-bromo-4,5-difluorophenyl)-1-(2-(tert-butylamino)-2-oxoacetyl)-pyrrolidine-3-carboxamide] | – | – | > 25000 | 141 | 26
CC(C)NC(=O)C(=O)N1CCC(C(=O)Nc2ccc(F)c(C#N)c2)[C@@H]1C (stereo partly drawn) [Compound 27, (2S)-N-(3-cyano-4-fluoro-phenyl)-1-[2-(isopropylamino)-2-oxo-acetyl]-2-methyl-pyrrolidine-3-carboxamide] | – | – | > 25000 | 119 | 126
Cc1cc(NC(=O)[C@H]2CCN(C(=O)C(=O)NC(C)C)C2)ccc1F [Compound 4, (3S)-N-(4-Fluoro-3-methylphenyl)-1-{[(1-methylethyl)amino] (oxo)acetyl}-pyrrolidine-3-carboxamide] | – | – | > 25000 | 126 | 71
Cc1cc(NC(=O)[C@H]2CCCN(C(=O)C(=O)NC(C)C)C2)ccc1F [Compound 12, (3S)-N-(4-Fluoro-3-methylphenyl)-1-{[(1-methylethyl)amino] (oxo)-acetyl}piperidine-3-carboxamide] | – | – | > 25000 | 321 | 115
CC1C(C(=O)Nc2ccc(F)c(Cl)c2F)CCCN1C(=O)C(=O)N[C@H](C)C(F)(F)F (single isomer, unassigned) [Compound 35a] | > 1000 | > 1000 | > 25000 | – | –
Cc1cc(NC(=O)C2CC(C)N(C(=O)C(=O)NC3(C)COC3)C2)ccc1F (single isomer, unassigned) [Compound 17a, N-(4-fluoro-3-methylphenyl)-5-methyl-1-(2-((3-methyloxetan-3-yl)amino)-2-oxoacetyl)pyrrolidine-3-carboxamide] | > 1000 | > 1000 | > 25000 | – | –
Cc1cc(NC(=O)[C@H]2CCN(C(=O)C(=O)NC3(C)COC3)[C@H]2C)ccc1F [Compound 10, (2S,3S)-N-(4-Fluoro-3-methylphenyl)-2-methyl-1-{[(3-methyloxetan-3-yl)-amino](oxo)acetyl}pyrrolidine-3-carboxamide] | – | – | > 25000 | 8 | 9
C[C@@H](NC(=O)C(=O)N1CC[C@H](C(=O)Nc2ccc(F)c(C#N)c2)C1)C(F)(F)F [Compound 22, (3S)-N-(3-cyano-4-fluoro-phenyl)-1-[2-oxo-2-[[(1R)-2,2,2-trifluoro-1-methyl-ethyl]amino]acetyl]pyrrolidine-3-carboxamide] | – | – | > 25000 | 110 | 128
C[C@H]1[C@H](C(=O)Nc2cc(F)c(F)c(F)c2)CCN1C(=O)C(=O)N[C@H](C)C(F)(F)F [Compound 34a, (2S,3R)-2-methyl-1-[2-oxo-2-[[(1R)-2,2,2-trifluoro-1-methyl-ethyl]amino]acetyl]-N-(3,4,5-trifluorophenyl)pyrrolidine-3-carboxamide] | – | – | > 25000 | – | > 500
CC(C)NC(=O)C(=O)N1CCC(C(=O)Nc2ccc(F)c(Cl)c2F)[C@@H]1C (stereo partly drawn) [Compound 28, (2S)-N-(3-chloro-2,4-difluoro-phenyl)-1-[2-(isopropylamino)-2-oxo-acetyl]-2-methyl-pyrrolidine-3-carboxamide] | – | – | > 25000 | 50 | 83
O=C(NC1(C(F)(F)F)CC1)C(=O)N1CC[C@H](C(=O)Nc2ccc(F)c(Cl)c2)C1 [Compound 25, (3S)-N-(3-chloro-4-fluoro-phenyl)-1-[2-oxo-2-[[1-(trifluoromethyl)cyclopropyl]amino]acetyl]pyrrolidine-3-carboxamide] | – | – | > 25000 | 42 | 31
O=C(NC1(C(F)(F)F)CC1)C(=O)N1CC[C@H](C(=O)Nc2cc(F)c(F)c(Cl)c2)C1 [Compound 13, (S)-N-(3-chloro-4,5-difluorophenyl)-1-(2-oxo-2-((1-(trifluoromethyl)cyclopropyl)amino)acetyl)pyrrolidine-3-carboxamide] | – | – | > 25000 | 20 | 35
C[C@H]1[C@@H](C(=O)Nc2cc(F)c(F)c(F)c2)CCN1C(=O)C(=O)N[C@H](C)C(F)(F)F [Compound 34b, (2S,3S)-2-methyl-1-[2-oxo-2-[[(1R)-2,2,2-trifluoro-1-methyl-ethyl]amino]acetyl]-N-(3,4,5-trifluorophenyl)pyrrolidine-3-carboxamide] | – | – | > 25000 | – | 4
CC(C)(C)NC(=O)C(=O)N1CC[C@H](C(=O)Nc2ccc(F)c(C#N)c2)C1 [Compound 20, (3S)-1-[2-(tert-butylamino)-2-oxo-acetyl]-N-(3-cyano-4-fluorophenyl)-pyrrolidine-3-carboxamide] | – | – | > 25000 | 289 | 645
C[C@@H](NC(=O)C(=O)N1CCC(C(=O)Nc2cc(F)c(F)c(Cl)c2)C1(C)C)C(F)(F)F (stereo partly drawn) [Compound 18, N-(3-chloro-4,5-difluoro-phenyl)-2,2-dimethyl-1-[2-oxo-2-[[(1R)-2,2,2-trifluoro-1-methyl-ethyl]amino]acetyl]pyrrolidine-3-carboxamide] | – | – | > 25000 | – | 670
C[C@H]1[C@@H](C(=O)Nc2cc(F)c(F)c(Cl)c2)CCN1C(=O)C(=O)N[C@H](C)C(F)(F)F [Compound 33b, (2S,3S)-N-(3-chloro-4,5-difluoro-phenyl)-2-methyl-1-[2-oxo-2-[[(1R)-2,2,2-trifluoro-1-methyl-ethyl]amino]acetyl]pyrrolidine-3-carboxamide] | – | – | > 25000 | – | 5
Cc1cc(NC(=O)[C@H]2CCN(C(=O)C(=O)NC3CCCC3)C2)ccc1F [Compound 5] | – | – | > 25000 | 112 | 46
C[C@H](NC(=O)C(=O)N1CC[C@H](C(=O)Nc2ccc(F)c(C(F)F)c2)C1)C(F)(F)F [Compound 30, (3S)-N-[3-(difluoromethyl)-4-fluoro-phenyl]-1-[2-oxo-2-[[(1 S)-2,2,2-trifluoro-1-methyl-ethyl]amino]acetyl]pyrrolidine-3-carboxamide] | – | – | > 25000 | 161 | 125
C[C@@H](NC(=O)C(=O)N1CC[C@H](C(=O)Nc2ccc(F)c(Cl)c2F)C1)C(F)(F)F [Compound 21, (3S)-N-(3-chloro-2,4-difluoro-phenyl)-1-[2-oxo-2-[[(1R)-2,2,2-trifluoro-1-methyl-ethyl]amino]acetyl]pyrrolidine-3-carboxamide] | – | – | > 25000 | 63 | 63
C[C@H](NC(=O)C(=O)N1CC[C@H](C(=O)Nc2ccc(F)c(Cl)c2)C1)C(F)(F)F [Compound 26, (3S)-N-(3-chloro-4-fluoro-phenyl)-1-[2-oxo-2-[[(1S)-2,2,2-trifluoro-1-methyl-ethyl]amino]acetyl]pyrrolidine-3-carboxamide] | – | – | > 25000 | 168 | 122
C[C@H]1[C@H](C(=O)Nc2cc(F)c(F)c(Cl)c2)CCN1C(=O)C(=O)N[C@H](C)C(F)(F)F [Compound 33a, (2S,3R)—N-(3-chloro-4,5-difluoro-phenyl)-2-methyl-1-[2-oxo-2-[[(1R)-2,2,2-trifluoro-1-methyl-ethyl]amino]acetyl]pyrrolidine-3-carboxamide] | – | – | > 25000 | – | > 500

Source: US10377709B2, “Carboxamide derivatives and the use thereof as medicaments for the treatment of hepatitis B” (Janssen Sciences Ireland UC, priority 2013, dated 2019)
